Results: patent US20030232986A1, “Inhibitors of caspases” (Vertex Pharmaceuticals Incorporated, priority 1998, published 2003)

What was measured:
[1] = test system: Human whole blood, IL-1β production; assay: Whole blood assay for IL-1β production; assay type: cell-based; conditions: LPS-stimulated whole blood, IL-1β by ELISA
Method in brief: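 LPS-stimulated (5.0 ng/ml final) human whole blood incubated with test compound in saline (or plasma/PBS-5% DMSO for hydrophobic compounds) at 30° C for 16-18 hr. Plasma IL-1β then measured by ELISA at 1:200 dilution, against no-LPS, no-inhibitor and vehicle controls.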

[2] = Single pass perfusion in rat: GI wall and liver metabolism, biliary excretion; assay type: in vitro ADME; conditions: for f (g) Xf (h): GI wall metabolism f(g) x liver metabolism f(h)
Protocol: Single pass perfusion studies in rat were performed to assess gastrointestinal (GI) wall metabolism (f(g)), liver metabolism (f(h)), and biliary excretion. The method used has been described in Pang, C. S., J. Pharmacol. Exp. Therapeutics, 333, pp. 788-798 (1984).

Caspase-1 = target: T1, Caspase-1 (Homo sapiens, UniProt P29466); assay: Caspase-1 enzyme inhibition (Ki); assay type: biochemical; conditions: substrate Suc-YVAD-pNA 80 μM, 37° C., pH 7.5
T1 sequence (P29466 120-297 limits assumed): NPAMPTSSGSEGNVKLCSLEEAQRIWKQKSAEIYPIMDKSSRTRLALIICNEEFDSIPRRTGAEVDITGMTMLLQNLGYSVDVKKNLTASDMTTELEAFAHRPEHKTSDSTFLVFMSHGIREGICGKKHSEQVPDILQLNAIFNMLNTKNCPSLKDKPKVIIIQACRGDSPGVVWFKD
T1 sequence (P29466 317-404 limits assumed): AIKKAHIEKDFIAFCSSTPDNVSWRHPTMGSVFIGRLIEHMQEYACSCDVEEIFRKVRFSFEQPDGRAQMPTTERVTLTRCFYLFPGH
Method in brief: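 Ki obtained by fitting rate versus inhibitor concentration to the Morrison tight-binding equation for competitive inhibitors, with pNA release read at 405 nm at 37 °C. Substrate Suc-YVAD-pNA (80 μM final) added after 15 min enzyme–inhibitor preincubation in Tris pH 7.5 buffer with DTT and CHAPS.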

| SMILES | IC50 [1] [µM] | Biliary Excretion [2] | f (g) Xf (h) [2] | Ki (Caspase-1) [µM] |
| --- | --- | --- | --- | --- |
| CC(C)[C@H](NC(=O)c1nccc2ccccc12)C(=O)N1CC(c2ccccc2)[C@H]1C(=O)N[C@H](C=O)CC(=O)O (some centres unmarked) [Example 24c] | 2.5 to 7.5 | C (Category “C” indicates >10%) | A (category “A” indicates <0.25) | < 0.01 |
| CC(C)[C@H](NC(=O)c1nccc2ccccc12)C(=O)N1CC[C@H](C)[C@H]1C(=O)N[C@H](C=O)CC(=O)O [Example 26c] | 2.5 to 7.5 | C (Category “C” indicates >10%) | A (category “A” indicates <0.25) | < 0.01 |
| CC(C)[C@H](NC(=O)c1nccc2ccccc12)C(=O)N1C2CCCCC2C[C@H]1C(=O)N[C@H](C=O)CC(=O)O (some centres unmarked) [Example 26e] | < 2.5 | B (Category “B” indicates 5-10%) | B (Category “B” indicates 0.25-0.49) | < 0.01 |
| CC(C)[C@H](NC(=O)c1nccc2ccccc12)C(=O)N1[C@@H](c2ccccc2)CC[C@H]1C(=O)N[C@H](C=O)CC(=O)O [Example 26f] | 2.5 to 7.5 | C (Category “C” indicates >10%) | A (category “A” indicates <0.25) | < 0.01 |
| C[C@H](NC(=O)c1ccc(N)c(Cl)c1)C(=O)N1CC(F)(F)C[C@H]1C(=O)N[C@H](C=O)CC(=O)O [Example 27a] | < 2.5 | A (category “A” indicates <5%) | C (Category “C” indicates 0.5-0.75) | 0.01 to 1 |
| C[C@H](NC(=O)[C@@H](NC(=O)c1nccc2ccccc12)C(C)(C)C)C(=O)N[C@H](C=O)CC(=O)O [Example 29g] | < 2.5 | B (Category “B” indicates 5-10%) | B (Category “B” indicates 0.25-0.49) | < 0.01 |
| Cc1cc(C(=O)N[C@H](C(=O)N2CCCC2C(=O)N[C@H](C=O)CC(=O)O)C(C)C)cc(C)c1O (stereo partly drawn) [Example 65, 3-({l-[2-(4-Hydroxy-3,5-dimethyl-benzoyiamino)-3-methyl-butyryl]-pyrrolidine-2-carbonyl}-amino)-4-oxo-butyric acid] | < 2.5 | C (Category “C” indicates >10%) | B (Category “B” indicates 0.25-0.49) | < 0.01 |
| C[C@H](NC(=O)c1cccc2c1-c1ccccc1C2=O)C(=O)N1CCC[C@H]1C(=O)N[C@H](C=O)CC(=O)O [Example 122a] | < 2.5 | A (category “A” indicates <5%) | B (Category “B” indicates 0.25-0.49) | < 0.01 |
| C[C@H](NC(=O)c1ccc(N)c(Cl)c1)C(=O)N1CCC[C@H]1C(=O)N[C@H](C=O)CC(=O)O [Example 122b, 3-({-[2-(4-Amino-3-chloro-benzoylamino)-propionyl]-pyrrolidine-2-carbonyl}-amino)-4-oxo-butyric acid] | < 2.5 | A (category “A” indicates <5%) | C (Category “C” indicates 0.5-0.75) | < 0.01 |
| COc1c(Cl)cc(C(=O)N[C@@H](C)C(=O)N2CCC[C@H]2C(=O)N[C@H](C=O)CC(=O)O)cc1Cl [Example 122c, 3-({1-[2-(3,5-Dichloro-4-methoxy-benzoylamino)-propionyl]-pyrrolidine-2-carbonyl}-amino)-4-oxo-butyric acid] | 2.5 to 7.5 | B (Category “B” indicates 5-10%) | C (Category “C” indicates 0.5-0.75) | < 0.01 |

Continued, values first:

| IC50 [1] [µM] | Biliary Excretion [2] | f (g) Xf (h) [2] | Ki (Caspase-1) [µM] | SMILES |
| --- | --- | --- | --- | --- |
| 2.5 to 7.5 | C (Category “C” indicates >10%) | B (Category “B” indicates 0.25-0.49) | < 0.01 | COc1ccc(C(=O)NC(C(=O)N2N=C(C(C)(C)C)SC2C(=O)NC(C=O)CC(=O)O)C(C)C)cc1 (centres unmarked) [Example 46b] |
| > 7.5 | B (Category “B” indicates 5-10%) | B (Category “B” indicates 0.25-0.49) | < 0.01 | COc1ccc(C(=O)NC(C(=O)N2CCCC2C(=O)NC(C=O)CC(=O)O)C(C)C)cc1 (centres unmarked) [Example 57, 3-({1-[2-(4-Methoxy-benzoylamino)-3-methyl-butyryl]-pyrrolidine-2-carbonyl}-amino)-4-oxo-butyric acid] |
| < 2.5 | A (category “A” indicates <5%) | C (Category “C” indicates 0.5-0.75) | < 0.01 | COc1ccc(C(=O)NC(C(=O)N2CCCC2C(=O)NC(C=O)CC(=O)O)C(C)(C)C)cc1 (centres unmarked) [Example 69, 3-({1-[2-(4-Methoxy-benzoylamino)-3,3-dimethyl-butyryl]-pyrrolidine-2-carbonyl}-amino)-4-oxo-butyric acid] |
| < 2.5 | A (category “A” indicates <5%) | C (Category “C” indicates 0.5-0.75) | < 0.01 | COc1c(C)cc(C(=O)N[C@@H](C)C(=O)N2CCC[C@H]2C(=O)N[C@H](C=O)CC(=O)O)cc1C [Example 122d, 3-({1-[2-(4-Methoxy-3,5-dimethyl-benzoylamino)-propionyl]-pyrrolidine-2-carbonyl}-amino)-4-oxo-butyric acid] |
